According to patent publication US20230114241A1, “METHODS OF TREATING EPILEPSY USING THE SAME” (Trevena, Inc., priority 2019, published 2023):

Tests used:
[1] = molecular target: sphingosine-1-phosphate receptor 5 (S1P5) (Homo sapiens, UniProt Q9H228); assay: Selectivity: inhibition of cAMP production (HTRF), S1P5 CHO-K1 cells; type: cell-based; conditions: for Emax: CHO-K1, efficacy normalized to maximal efficacy of fimgolimod, read-out: hS1P5 cAMP SPAN; for EC50: inhibition of cAMP production, read-out: hS1P5 cAMP pEC50 (converted)
Description: (§1) Cell Culturing and Assay Plating Cell lines were cultured in AssayComplete™ Media 6 (DiscoverX Corporation, Cat #: 920018GF2) at 37° C. and 5% CO2 in a humidified CO2 and temperature-controlled incubator. To begin assay plating, cells were washed with Dulbecco's phosphate buffered saline (CellGro, Cat #: 21-031-CV) and lifted from the culturing flask by incubation (37° C., 5 min) with CellStripper (Cellgro, Cat #: 25-056-CI). […] Plated cells were incubated overnight at 37° C. and 5% CO2 in a humidified CO2 and temperature-controlled incubator. Detecting Inhibition of cAMP Production
(§2) S1P3 and S1P5 Agonist-promoted G-protein responses were determined by measuring changes in intracellular cAMP using the HTRF® cAMP HiRange kit (CisBio, Cat #: 62AM6PEJ) based on time-resolved fluorescence resonance energy transfer (TR-FRET) technology. […] Following a 30-minute room temperature incubation the components of the cAMP HiRange kit were added as per the manufacturer's instructions. After an hour incubation at room temperature, plates were analyzed by a BMG PheraStar microplate reader.
(§3) These values are normalized to fimgolimod, a known agonist of the sphingosine-1-phosphate 3 and 5 receptor or CYM5520, a known agonist of the sphingosine-1-phosphate 2 receptor. The tables also include potency values (pEC50) for modulating discrete receptor-mediated activities (inhibition of cAMP production or inositol monophosphate accumulation).

[2] = molecular target: human sphingosine-1-phosphate receptor 2 (S1P2) (Homo sapiens, UniProt O95136); assay: Selectivity: inositol monophosphate production (IP-one), S1P2 CHO-K1 cells; type: cell-based; conditions: for Emax: CHO-K1, efficacy normalized to maximal efficacy of CYM5520, read-out: hS1P2 IP-one SPAN; for EC50: inositol monophosphate accumulation, read-out: hS1P2 IP-one pEC50 (converted)
Description: as §1
S1P2 Agonist-promoted G-protein responses were determined by measuring changes in intracellular inositol monophosphate using the IP-one TB kit (CisBio, Cat #: 62IPAPEJ) based on time-resolved fluorescence resonance energy transfer (TR-FRET) technology. AssayComplete™ Cell Plating 2 Reagent was removed and replaced with 1× IP-one stimulation buffer (as per manufacturer's instructions) along with test or control compounds at the desired concentrations.
Following a 60-minute incubation at 37° C. and 5% CO2 in a humidified CO2 and temperature-controlled incubator, the components of the IP-one TB kit were added as per the manufacturer's instructions. After an hour incubation at room temperature, plates were analyzed by a BMG PheraStar microplate reader.
as §3

[3] = molecular target: human sphingosine-1-phosphate receptor 3 (S1P3) (Homo sapiens, UniProt Q99500); assay: Selectivity: inhibition of cAMP production (HTRF), S1P3 CHO-K1 cells; type: cell-based; conditions: for Emax: CHO-K1, efficacy normalized to maximal efficacy of fimgolimod, read-out: hS1P3 cAMP SPAN; for EC50: inhibition of cAMP production, read-out: hS1P3 cAMP pEC50 (converted)
Description: as §1, §2, §3

[4] = molecular target: T1, human sphingosine-1-phosphate receptor 1 (S1P1) (Homo sapiens, UniProt P21453); assay: β-Arrestin2 recruitment assay (PathHunter), S1P1 CHO-K1 cells; type: cell-based; conditions: for Emax: efficacy normalized to maximum efficacy of fingolimod, read-out: hS1P1 B-arrestin2 SPAN; for EC50: β-arrestin2 recruitment, read-out: hS1P1 B-arrestin2 pEC50 (converted)
Summary of the method: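 Agonist-driven β-arrestin2 recruitment measured by β-galactosidase complementation after 60 min compound exposure at 37 °C and 1 h detection at room temperature. Cells: stable CHO-K1 line expressing tagged human S1P1 with EA-β-arrestin2, plated the night before. Data expressed relative to fingolimod.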
Target sequence in this assay (P21453 whole entry): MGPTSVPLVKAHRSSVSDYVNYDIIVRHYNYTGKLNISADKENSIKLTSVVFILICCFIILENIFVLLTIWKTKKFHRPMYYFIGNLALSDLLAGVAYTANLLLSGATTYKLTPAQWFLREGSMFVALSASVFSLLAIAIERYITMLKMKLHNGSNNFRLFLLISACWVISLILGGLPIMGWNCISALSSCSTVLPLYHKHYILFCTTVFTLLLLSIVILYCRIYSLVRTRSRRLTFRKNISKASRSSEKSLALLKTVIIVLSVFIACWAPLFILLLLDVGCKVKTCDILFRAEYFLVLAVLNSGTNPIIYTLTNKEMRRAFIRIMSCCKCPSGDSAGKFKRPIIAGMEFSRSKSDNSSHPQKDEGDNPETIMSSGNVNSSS
Target sequence in this assay (P32121 whole entry partner): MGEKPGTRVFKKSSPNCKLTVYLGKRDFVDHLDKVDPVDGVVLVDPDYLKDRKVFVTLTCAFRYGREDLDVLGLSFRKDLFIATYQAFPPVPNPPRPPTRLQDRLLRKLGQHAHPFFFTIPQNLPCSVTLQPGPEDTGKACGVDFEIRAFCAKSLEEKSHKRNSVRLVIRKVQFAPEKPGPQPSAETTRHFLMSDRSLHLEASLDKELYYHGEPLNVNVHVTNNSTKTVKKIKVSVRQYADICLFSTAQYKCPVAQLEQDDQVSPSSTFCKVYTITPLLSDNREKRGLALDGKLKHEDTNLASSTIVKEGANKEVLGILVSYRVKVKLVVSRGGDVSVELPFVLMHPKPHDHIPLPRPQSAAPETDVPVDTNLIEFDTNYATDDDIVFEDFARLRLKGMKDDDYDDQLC

[5] = molecular target: T1, human sphingosine-1-phosphate receptor 1 (S1P1); assay: Inhibition of cAMP production (HTRF cAMP HiRange), S1P1 CHO-K1 cells; type: cell-based; conditions: for Emax: CHO-K1, efficacy normalized to maximum efficacy of fingolimod, read-out: hS1P1 CAMP SPAN; for EC50: read-out: hS1P1 CAMP pEC50 (converted)
Summary of the method: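 Intracellular cAMP changes read by TR-FRET (HTRF HiRange, 1 h room temperature) after 30 min compound exposure at 37 °C. Cells: overnight-plated CHO-K1 stably expressing tagged human S1P1 with EA-β-arrestin2. Responses normalized to fingolimod.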
Target sequence in this assay (P21453 whole entry): as the sequence (P21453 whole entry) above

[6] = test system: peripheral blood lymphocytes; assay: Lymphopenia: peripheral blood lymphocyte counts, acute and chronic s.c. dosing; type: in vivo; conditions: 6 mg/kg sc, 7 days, c57bl/6 mice; vs vehicle
Description: Compounds were tested for changes in peripheral blood lymphocytes in C57bl/6 mice. In acute studies, animals (n=5/group) were dosed subcutaneously with test compound at a dose of 3 mg/kg. Animals were sacrificed at specific time points and […] of whole blood was collected in EDTA (K2) Eppendorf tubes. Blood was stored on ice and shipped immediately overnight delivery to Charles River Laboratories for analysis. CRL ran samples through their WBC/differential panel on an Advia 120 instrument. We received peripheral lymphocyte counts (10^3 cells/μl) for each blood sample. Treatment group means were compared to a vehicle treatment group for statistical significance. In chronic studies, animals (n=6-8/group) were dosed subcutaneously for three to seven days with test compound at doses that were at least 5-fold higher than the efficacious dose in pharmacology/behavioral assays. On the last day, animals were sacrificed 45 minutes to 6 hrs after the final dose. Whole blood was collected and analyzed as described for acute studies. […]

[7] = CHO-K1, β-arrestin2 recruitment
[8] = inhibition of cAMP production, potency
[9] = inhibition of cAMP production, S1P1

Chain of human sphingosine-1-phosphate receptor 3 (S1P3) (Q99500 whole entry): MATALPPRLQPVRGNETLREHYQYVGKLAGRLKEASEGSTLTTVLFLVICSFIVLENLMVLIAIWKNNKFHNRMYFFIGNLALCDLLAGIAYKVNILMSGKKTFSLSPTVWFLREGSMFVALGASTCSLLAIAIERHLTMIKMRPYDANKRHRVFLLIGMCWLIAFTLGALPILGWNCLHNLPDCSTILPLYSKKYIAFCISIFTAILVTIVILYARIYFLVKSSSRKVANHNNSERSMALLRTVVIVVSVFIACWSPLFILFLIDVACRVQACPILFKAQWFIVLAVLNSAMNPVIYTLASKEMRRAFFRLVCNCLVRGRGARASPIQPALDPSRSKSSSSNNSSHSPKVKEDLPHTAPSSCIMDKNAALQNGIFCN
Chain of human sphingosine-1-phosphate receptor 2 (S1P2) (O95136 whole entry): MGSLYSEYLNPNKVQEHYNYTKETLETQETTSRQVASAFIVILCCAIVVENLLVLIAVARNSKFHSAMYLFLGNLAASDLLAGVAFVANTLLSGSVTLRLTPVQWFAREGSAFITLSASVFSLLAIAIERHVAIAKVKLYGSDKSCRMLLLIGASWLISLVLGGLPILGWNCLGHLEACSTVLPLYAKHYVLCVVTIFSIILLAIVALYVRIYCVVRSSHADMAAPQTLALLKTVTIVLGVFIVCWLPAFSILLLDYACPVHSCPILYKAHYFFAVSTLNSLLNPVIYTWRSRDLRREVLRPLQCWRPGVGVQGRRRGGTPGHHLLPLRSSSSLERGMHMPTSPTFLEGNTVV
Chain of sphingosine-1-phosphate receptor 5 (S1P5) (Q9H228 whole entry): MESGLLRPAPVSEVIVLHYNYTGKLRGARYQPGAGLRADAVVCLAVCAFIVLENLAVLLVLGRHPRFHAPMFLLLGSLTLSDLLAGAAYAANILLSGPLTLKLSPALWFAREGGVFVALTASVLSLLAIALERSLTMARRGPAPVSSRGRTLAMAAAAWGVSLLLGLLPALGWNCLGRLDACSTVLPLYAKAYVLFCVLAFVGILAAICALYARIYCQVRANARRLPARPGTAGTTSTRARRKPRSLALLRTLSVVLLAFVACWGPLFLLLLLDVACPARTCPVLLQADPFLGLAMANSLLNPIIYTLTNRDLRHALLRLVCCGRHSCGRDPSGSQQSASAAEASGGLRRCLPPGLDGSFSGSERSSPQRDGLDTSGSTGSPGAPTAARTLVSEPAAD

| SMILES | Emax [1] | EC50 [1] | Emax [2] | EC50 [2] | Emax [3] | EC50 [3] | Emax [4, 7] | EC50 ([4]; potency) | Emax ([5]; inhibition of cAMP production) | EC50 [5, 8] | Emax ([4]; CHO-K1) | EC50 ([4]; S1P1) | Emax [5] | EC50 [5, 9] | Lymphopenia effect (change in peripheral blood lymphocytes) [6] |
| --- | --- | --- | --- | --- | --- | --- | --- | --- | --- | --- | --- | --- | --- | --- | --- |
| C=CCNc1ccc(-c2nc(-c3ccc4sc(N)nc4c3)no2)cc1C#N [Compound 267, 2-(allylamino)-5-(3-(2-aminobenzo[d]thiazol-5-yl)-1,2,4-oxadiazol-5-yl)benzonitrile] | < 50% | > 10 µM | < 50% | > 10 µM | < 50% | > 10 µM | < 75% | < 10 µM | < 75% | < 0.316 µM | – | – | – | – | – |
| COc1cnccc1-c1nc(-c2ccc3c(ccn3C(C)C)c2)no1 [Compound 391, 3-(1-isopropyl-1H-indol-5-yl)-5-(3-methoxypyridin-4-yl)-1,2,4-oxadiazole] | < 50% | < 10 µM | < 50% | < 10 µM | > 50% | < 10 µM | – | – | – | – | > 75% | < 10 µM | > 75% | < 0.316 µM | – |
| COc1cc(NC(C)=O)ccc1-c1noc(-c2ccc(NC(C)C)c(C#N)c2)n1 [Compound 731, N-[4-(5-{3-cyano-4-[(propan-2-yl)amino]phenyl}-1,2,4-oxadiazol-3-yl)-3-methoxyphenyl]acetamide] | – | – | – | – | – | – | – | – | – | – | – | – | – | – | −78% stat sig: 6 mg/kg, 7 days |
| CCC1(CC)CC(=O)c2cc(-c3nc(-c4ccc5[nH]c(=O)oc5c4)no3)ccc2O1 [Compound 445, 6-(5-(2,2-diethyl-4-oxochroman-6-yl)-1,2,4-oxadiazol-3-yl)benzo[d]oxazol-2(3H)-one] | – | – | < 50% | < 10 µM | < 50% | > 10 µM | – | – | – | – | > 75% | < 10 µM | > 75% | < 0.316 µM | – |
| CC(C)n1nnc2cc(-c3nc4c(o3)Cc3ccccc3-4)ccc21 [Compound 219, 5-{8H-indeno[1,2-d][1,3]oxazol-2-yl}-1-(propan-2-yl)-1H-1,2,3-benzotriazole] | < 50% | > 10 µM | < 50% | < 10 µM | < 50% | > 10 µM | > 75% | < 10 µM | < 75% | < 0.316 µM | – | – | – | – | – |
| Cc1ccncc1-c1noc(-c2ccc3c(c2)nnn3C2CCC2)n1 [Compound 417, 1-cyclobutyl-5-[3-(4-methylpyridin-3-yl)-1,2,4-oxadiazol-5-yl]-1H-1,2,3-benzotriazole] | < 50% | > 10 µM | < 50% | < 10 µM | < 50% | > 10 µM | – | – | – | – | > 75% | < 10 µM | > 75% | < 0.316 µM | – |
| C=CCNc1ccc(-c2nc(-c3cn[nH]c3)no2)cc1C#N [Compound 252, 5-(3-(1H-pyrazol-4-yl)-1,2,4-oxadiazol-5-yl)-2-(allyl-amino)benzonitrile] | > 50% | < 10 µM | < 50% | < 10 µM | < 50% | < 10 µM | > 75% | – | > 75% | – | – | – | – | – | – |
| COc1ccccc1-c1nnc(-c2ccc3c(c2)oc(=O)n3C)o1 [Compound 406, 6-[5-(2-methoxy-phenyl)-1,3,4-oxadiazol-2-yl]-3-methyl-2,3-dihydro-1,3-benzoxazol-2-one] | < 50% | > 10 µM | < 50% | > 10 µM | < 50% | > 10 µM | – | – | – | – | > 75% | < 10 µM | > 75% | < 0.316 µM | – |
| CC(C)Nc1ccc(-c2nc(-c3ccc4c(c3)NC(=O)C4)no2)cc1C#N [Compound 496, 2-(isopropylamino)-5-(3-(2-oxoindolin-6-yl)-1,2,4-oxadiazol-5-yl)benzonitrile] | – | – | < 50% | > 10 µM | < 50% | > 10 µM | – | – | – | – | > 75% | < 10 µM | > 75% | < 0.316 µM | – |
| CCC1(CC)CC(=O)c2cc(-c3nc(-c4ccc5[nH]ncc5c4)no3)ccc2O1 [Compound 152, 6-(3-(1H-indazol-5-yl)-1,2,4-oxadiazol-5-yl)-2,2-diethyl-chroman-4-one] | < 50% | > 10 µM | < 50% | > 10 µM | < 50% | > 10 µM | > 75% | < 10 µM | > 75% | > 0.316 µM | – | – | – | – | – |
| CC(C)Nc1ccc(-c2nc(-c3ccc4oc(=O)[nH]c4c3)no2)cc1C#N [Compound 422, 2-(isopropylamino)-5-(3-(2-oxo-2,3-dihydrobenzo[d]oxazol-5-yl)-1,2,4-oxadiazol-5-yl)benzonitrile] | – | – | < 50% | < 10 µM | < 50% | < 10 µM | – | – | – | – | > 75% | < 10 µM | > 75% | < 0.316 µM | – |
| COc1ccccc1-c1nc(-c2ccc3c(ccn3C(C)C)c2)no1 [Compound 398, 3-(1-isopropyl-1H-indol-5-yl)-5-(2-methoxyphenyl)-1,2,4-oxadiazole] | < 50% | > 10 µM | < 50% | > 10 µM | < 50% | > 10 µM | – | – | – | – | > 75% | < 10 µM | > 75% | < 0.316 µM | – |
| CCC1(CC)CC(=O)c2cc(-c3nc(-c4ccccc4Cl)no3)ccc2O1 [Compound 221, 6-(3-(2-chlorophenyl)-1,2,4-oxadiazol-5-yl)-2,2-diethylchroman-4-one] | < 50% | < 10 µM | < 50% | > 10 µM | < 50% | < 10 µM | > 75% | < 10 µM | > 75% | < 0.316 µM | – | – | – | – | – |
| CCC1(CC)CC(=O)c2cc(-c3nc(-c4ccnc(O)c4)no3)ccc2O1 [Compound 263, 2,2-diethyl-6-[3-(2-hydroxy-4-pyridyl)-1,2,4-oxadiazol-5-yl]chroman-4-one] | < 50% | > 10 µM | < 50% | > 10 µM | < 50% | > 10 µM | > 75% | < 10 µM | > 75% | < 0.316 µM | – | – | – | – | – |
